We go through one compound from PMC12257544, “Fluorescent Isostere (Fluostere) of the Carboxylate: Design of hDHODH Fluorescent Inhibitors as Proof of Concept” (Journal of Medicinal Chemistry, 2025).

One data set has as its system THP1 cells. Kind of data set: Annexin V apoptosis assay. The data set is classed as cell-based, human. How it is done:
After 3 days of culture, the apoptotic assay was performed using the Annexin V-FITC Kit (Miltenyi Biotec, Italy), according to the manufacturer's instructions. The apoptotic cells were acquired on […] and analyzed using Kaluza software version 2.1 (Beckman Coulter, Fullerton, CA).

Another data set has as its system hCoV-OC43. Kind of data set: Antiviral focus-forming reduction assay (FFRA) in HCT-8 cells. The data set is classed as cell-based, human coronavirus OC43. As for the experimental part: After virus adsorption (2 h at 33 °C), the infected cell cultures were incubated in medium containing the corresponding compounds plus 1% (w/v) methylcellulose (Merck) and 1% (v/v) FBS. […] Viral foci were microscopically counted, and the mean plaque counts for each drug concentration was converted in viral titer (PFU/mL).

The nature of data set [1]: Cytotoxicity assay (CellTiter-Glo). In kind it is cell-based, human. Conditions: human, HCT-8 cells (uninfected), uninfected HCT-8 cells. As for the experimental part:
(§1) After 72 h of incubation, the number of viable cells was determined using the CellTiter-Glo Luminescent assay (Promega, Milan, Italy). The cytotoxicity of the tested compounds was expressed as cytotoxic concentration (CC50).

The subject of a further data set is HCT-8 cells. Kind of data set: Cytotoxicity assay (CellTiter-Glo). In kind it is cell-based, human. Conditions: uninfected HCT-8 cells, 72 h. As for the experimental part: as §1
For orientation: Cellular ATP, detected with luciferase, serves as a proxy for viable cell number.

The target in another data set is hDHODH (Homo sapiens, UniProt Q02127). Kind of data set: Fluorescence emission of the compound in the presence of recombinant hDHODH. In kind it is binding. Particulars: compound 1 μM, hDHODH 31.5 to 504 nM, TRIS pH 8. How it is done: In particular, we observed an increase in fluorescence intensity in correlation with the growing amount of protein, as shown in Figure .
hDHODH, sequence (Q02127 whole entry): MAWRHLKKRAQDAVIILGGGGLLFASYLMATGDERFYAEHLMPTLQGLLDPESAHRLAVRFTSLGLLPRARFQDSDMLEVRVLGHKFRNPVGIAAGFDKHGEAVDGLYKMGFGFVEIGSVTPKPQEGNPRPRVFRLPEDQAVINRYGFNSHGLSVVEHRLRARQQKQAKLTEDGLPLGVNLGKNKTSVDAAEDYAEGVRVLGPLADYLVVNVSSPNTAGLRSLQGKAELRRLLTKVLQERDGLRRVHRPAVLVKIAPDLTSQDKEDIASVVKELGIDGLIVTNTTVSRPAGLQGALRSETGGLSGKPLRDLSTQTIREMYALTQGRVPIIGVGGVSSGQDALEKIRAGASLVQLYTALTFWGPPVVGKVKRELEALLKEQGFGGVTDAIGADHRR
UV–Vis absorption spectra were recorded on a Cary60 spectrometer. Photoemission spectra, luminescence lifetimes, and quantum yields were acquired with a HORIBA Jobin Yvon IBH Fluorolog-TCSPC spectrofluorometer equipped with a Quanta-φ integrating sphere. […] Emission-decay data were collected in 2048 channels to 10000 counts in the peak channel. IRF was measures using colloidal silica suspension in H2O to scatter light. Data were analyzed with the software DAS6 (TCSPC decay-analysis software) using a nonlinear least-squares method to fit of the decay to a sum of exponentials. The value of χ^2, residuals and the autocorrelation function (Durbin-Watson parameter) were used to determine the quality of the fit. […] After 5 min incubation UV–Vis absorption spectra were recorded on a Cary60 spectrophotometer and photoemission spectra were acquired with a HORIBA Jobin Yvon IBH Fluorolog-TCSPC spectrofluorometer with excitation λ of 366 nm and maximum of emission at 500 nm; a.u. data were analyzed with GraphPad Prism using One Site – Specific Binding equation.

A short description of data set [2]: Cytotoxicity assay (CellTiter-Glo). In kind it is cell-based. Particulars: human, MRC-5 cells; 72 h incubation; read-out: MRC-5 CC50 (C.L. 95 %). How it is done:
as §1

The subject of data set [3] is THP-1 cells. Kind of data set: Confocal fluorescence microscopy and Red-MitoTracker co-localization. In kind it is cell-based, human. Conditions: 10 μM, 24 h. How it is done: Thus, compounds 11a and 14 were subsequently examined in the context of living cells to determine whether they retained their fluorescence profile after entry into target cells. First, both compounds were incubated for 24 h with THP-1 cells at a concentration of 10 μM. After washing with PBS buffer, cells were analyzed under confocal microscopy using an appropriate laser stimulation (λex: 405 nm, λem: […]) to excite the molecules.
Co-localization experiments were performed to examine whether compound 11a may reach the cellular compartment where hDHODH is located. For this, a specific mitochondrial stain marker in the two cell lines in which the biological activities of 11a were observed, namely THP-1 and HCT-8 cells, was used. The compound was therefore incubated with THP-1 cells (Figure ) or HTC-8 cells (Figure ) at 37 °C for 24 h. Then, cells were stained with Red-MitoTracker (a specific fluorescent probe for mitochondrial targeting) for 30 min at 37 °C.
For fluorescence analysis, 10 μM of target compounds were incubated with THP-1 for 24 h. After washing the cells with a PBS buffer solution, they were analyzed under confocal microscopy imaging technique using the appropriate laser to excite the molecule. For the colocalization experiments, HCT-8 cells (55,000 cells/well) were plated on μ-Slide 8 well high glass bottom (IBIDI, Gräfelfing, Germany) and treated for 24 h with 10 μM of 11a at 37 °C. Then, cells were stained with MitoTracker Red CMXRos (ThermoFischer, Carlsbad, CA, USA) (1:4000) for 30′ at 37 °C and after washing with PBS buffer solution, cells were visualized with a Leica TCS SP5 multiphoton-inverted confocal microscope equipped with LAS AF matrix software. Live cells were imaged using an HCX PL APO 63×/1.4 NA oil immersion objective. Images were collected with excitation of ligand 11a at λex = 405 nm and emission at λem = 500 nm, Red-MitoTracker at λex = 581 nm and emission at λem = 605 nm.

Data set [4] relates to THP-1 cells. As to the kind of experiment: Co-localization competition assay with Bay2402234 (Manders coefficient). In kind it is cell-based, human. Conditions: 10 μM each, 3 h, Manders coefficient, Welch's t test p = 0.0024. As for the experimental part:
Colocalization between hDHODH inhibitors and mitochondria was quantified using Manders coefficient (Figure D).
THP-1 cells were incubated for 3 h with hDHODHi 11a and Bay240223410 at 10 μM, either alone or in combination. After incubation, the cells were washed and stained with Red-MitoTracker CMXRos (Thermo Fisher, Carlsbad, CA, USA) at a concentration of 100 nM for 30 min at 37 °C. Cells were imaged with a Leica TCS SP8 confocal system (Leica Microsystems) equipped with 4 excitation lasers (405 Diode, Argon, DPSS561, HeNe633). Images were acquired with a HCX PL APO 63×/1.4 NA oil-immersion objective with a resolution of 81 nm × 81 nm and were processed and analyzed with ImageJ software (Rasband, W.S., U.S. National Institutes of Health, Bethesda, […]). In particular, colocalization was analyzed with JACoP plugin and Manders’ coefficient was calculated

Structures are written as SMILES. Like-named read-outs stand apart in the source and are kept apart here.

As usually defined, the CC50 is the concentration giving 50% cytotoxicity. Turning to `Oc1nn2ccccc2c1/C=C/c1c(F)c(F)c(-c2ccccc2)c(F)c1F` [Compound 11a, (E)-3-(2-(2,3,5,6-Tetrafluoro-[1,1’-biphenyl]-4-yl)vinyl)pyrazolo[1,5-a]pyridin-2-ol], the EC50 stood at 0.693 µM with THP1 cells (Homo sapiens, THP-1, 72 h, 3 days of culture, Annexin V-FITC, read-out: Apoptosis EC50 THP1 (C.L. 95 %)) and 2.3 ± 0.5 µM in the data set on hCoV-OC43 (Betacoronavirus 1, OC43, HCT-8, 72 h, read-out: EC50, concentration inhibiting 50% of virus replication, hCoV-OC43, FFRA in HCT-8 cells, 72 h p.i., full treatment). For the same compound, the “antileukemic activity relative to MEDS433” value with THP1 cells (lower than MEDS433, THP1 apoptosis) was approximately 10 fold. Moreover, the “pro-apoptotic activity after adding exogenous uridine” value in the data set with THP1 cells (uridine 100 μM, compound 1 µM, THP-1, 3 days) is “completely reversed”. In the data set with hCoV-OC43 (Betacoronavirus 1, OC43, HCT-8, 72 h, read-out: EC90, concentration inhibiting 90% of virus replication), the EC90 was found to be 23.3 ± 0.4 µM. Further, the “SI, Selectivity Index (ratio of CC50 to EC50)” value in the data set with hCoV-OC43 (HCT-8 CC50 / hCoV-OC43 EC50) is recorded as 131. In addition, the CC50 at 72 h is 301 ± 9 µM in data set [1] and 7 µM in data set [2]. This compound also returned a half-maximal cytotoxic concentration (CC50) with HCT-8 cells of 301 ± 8.97 µM. For the same compound, the “fluorescence in the presence of the recombinant protein” value at hDHODH is recorded as “restoration of fluorescence”. Moreover, in the data set with THP-1 cells [3] (THP-1), the intracellular localization result was “localize in the cytosol”. Also, the “fluorescence in living cells” value with THP-1 cells [3] (THP-1, λex 405 nm) is given as “recovered a strong fluorescence”. Moreover, the “co-localization with Red-MitoTracker” value in the data set on THP-1 cells [3] (THP-1 cells) was “localize into mitochondria”. The “colocalization signal with the mitochondria in the presence of Bay2402234” value with THP-1 cells [4] is recorded as “decreased slightly but statistically significantly”.
